Laboratory results published in patent US11866518B2, “Bicyclic peptide ligands specific for TSLP” (BicycleTx Limited, priority 2020, dated 2024).
*1 amine or outer side, *2 acyl side, *3 side chain or, on linkers, in order; H or OH if unused. Where a SMILES comes first, the peptide text is derived from it. Bridges are numbered along the chain shown (N, C = ends). TATA = O=C(CC[*:1])N1CN(C(=O)CC[*:2])CN(C(=O)CC[*:3])C1

Molecular target: TSLP (Homo sapiens, UniProt Q969D9)
Test: Human TSLP Surface Plasmon Resonance (SPR) binding assay
Set-up: The resulting construct spCD33-6×HN-TEV-hTSLP(29-159)-Avi; 6xHN tag with TEV site (N, cleaved yes); made in house; host or cells: Expi293F cells
Settings: biotinylated human TSLP immobilized on streptavidin chip; 20° C.; steady-state or kinetic 1:1 fit; read-out: hTSLP SPR Kd

TSLP, sequence (Q969D9 29-159): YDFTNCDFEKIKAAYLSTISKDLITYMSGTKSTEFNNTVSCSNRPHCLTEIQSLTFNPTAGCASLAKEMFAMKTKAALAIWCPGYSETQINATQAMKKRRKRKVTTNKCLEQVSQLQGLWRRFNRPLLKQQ

SMILES	Kd [nM]
CC(C)C[C@@H]1NC(=O)[C@H](Cc2c[nH]c3ccccc23)NC(=O)[C@H](Cc2c[nH]c3ccccc23)NC(=O)[C@H](CC(=O)O)NC(=O)[C@H](CCC(=O)O)NC(=O)[C@@H]2CSCCC(=O)N3CN(CN(C3)C(=O)CCSC[C@@H](C(=O)N[C@@H](C)C(N)=O)NC1=O)C(=O)CCSC[C@H](NC(=O)[C@H](C)N)C(=O)N[C@@H](C(C)C)C(=O)N[C@@H](CC(=O)O)C(=O)N[C@@H](CC(C)C)C(=O)N[C@@H](CC(=O)O)C(=O)N1CCC[C@H]1C(=O)N[C@@H](Cc1c[nH]c3ccccc13)C(=O)N[C@@H](CO)C(=O)N2 [Example 183, A-(SEQ ID NO: 134)-A] (H-ACVDLDPWSCEDWWLCA-NH2; linker 2-10-16 via TATA; N-terminus and C-terminus assumed)	330
CC(C)C[C@@H]1NC(=O)[C@H](Cc2c[nH]c3ccccc23)NC(=O)[C@H](Cc2c[nH]c3ccccc23)NC(=O)[C@H]([C@@H](C)O)NC(=O)[C@H](CCC(=O)O)NC(=O)[C@@H]2CSCCC(=O)N3CN(CN(C3)C(=O)CCSC[C@H](N)C(=O)N[C@@H]([C@@H](C)O)C(=O)N[C@@H](CCC(=O)O)C(=O)N[C@@H](CC(C)C)C(=O)N[C@@H](CC(=O)O)C(=O)N3CCC[C@H]3C(=O)N[C@@H](Cc3c[nH]c4ccccc34)C(=O)N[C@@H]([C@@H](C)O)C(=O)N2)C(=O)CCSC[C@@H](C(N)=O)NC1=O [Example 185, (SEQ ID NO: 121)]	260
CC(C)C[C@@H]1NC(=O)[C@H](Cc2c[nH]c3ccccc23)NC(=O)[C@H](Cc2c[nH]c3ccccc23)NC(=O)[C@H](CC(=O)O)NC(=O)[C@@H]2CCCN2C(=O)[C@@H]2CSCCC(=O)N3CN(CN(C3)C(=O)CCSC[C@H](NC(=O)[C@H](CC(C)C)NC(=O)[C@H](CC(=O)O)NC(=O)[C@@H](N)CCCNC(=N)N)C(=O)N[C@@H]([C@@H](C)O)C(=O)N[C@@H](CC(=O)O)C(=O)N[C@@H](CC(C)C)C(=O)N[C@@H](CC(=O)O)C(=O)N3CCC[C@H]3C(=O)N[C@@H](Cc3c[nH]c4ccccc34)C(=O)N[C@@H]([C@@H](C)O)C(=O)N2)C(=O)CCSC[C@@H](C(=O)N[C@@H](C)C(N)=O)NC1=O [Example 189, RDL-(SEQ ID NO: 138)-A] (H-RDLCTDLDPWTCPDWWLCA-NH2; linker 4-12-18 via TATA; N-terminus and C-terminus assumed)	310
CC(C)C[C@@H]1NC(=O)[C@H](Cc2c[nH]c3ccccc23)NC(=O)[C@H](Cc2c[nH]c3ccccc23)NC(=O)[C@H](CO)NC(=O)[C@H](CO)NC(=O)[C@@H]2CSCCC(=O)N3CN(CN(C3)C(=O)CCSC[C@H](NC(=O)[C@H](CCC(N)=O)NC(=O)[C@H](Cc3c[nH]cn3)NC(=O)[C@@H](NC(=O)[C@H](CC(N)=O)NC(=O)[C@@H](NC(=O)[C@@H](N)CCCNC(=N)N)C(C)C)[C@@H](C)O)C(=O)N[C@@H](CCCNC(=N)N)C(=O)N[C@@H](CC(=O)O)C(=O)N[C@@H](CC(C)C)C(=O)N[C@@H](CC(=O)O)C(=O)N3CCC[C@H]3C(=O)N[C@@H](Cc3c[nH]c4ccccc34)C(=O)N[C@@H]([C@@H](C)O)C(=O)N2)C(=O)CCSC[C@@H](C(=O)N[C@@H](C)C(N)=O)NC1=O [Example 190, RVNTHQ-(SEQ ID NO: 122)-A]	81
CC(C)C[C@@H]1NC(=O)[C@H](Cc2c[nH]c3ccccc23)NC(=O)[C@@H]2CSCCC(=O)N3CN(CN(C3)C(=O)CCSC[C@@H](C(=O)N[C@@H](C)C(N)=O)NC(=O)[C@@H]3CCCN3C1=O)C(=O)CCSC[C@H](NC(=O)[C@H](C)N)C(=O)N[C@@H](CC(=O)O)C(=O)N[C@@H](Cc1c[nH]c3ccccc13)C(=O)N[C@@H](CCC(N)=O)C(=O)N[C@@H](Cc1c[nH]c3ccccc13)C(=O)N[C@@H](CO)C(=O)N[C@@H](Cc1ccc(O)cc1)C(=O)N[C@@H](CC(=O)O)C(=O)N2 [Example 196, A-(SEQ ID NO: 141)-A] (H-ACDWQWSYDCWLPCA-NH2; linker 2-10-14 via TATA; N-terminus assumed)	6100
CC(C)C[C@@H]1NC(=O)[C@H](Cc2c[nH]c3ccccc23)NC(=O)[C@@H]2CSCCC(=O)N3CN(CN(C3)C(=O)CCSC[C@@H](C(=O)N[C@@H](C)C(N)=O)NC(=O)[C@@H]3CCCN3C1=O)C(=O)CCSC[C@H](NC(=O)[C@H](C)N)C(=O)N[C@@H](CC(=O)O)C(=O)N[C@@H](Cc1c[nH]c3ccccc13)C(=O)N[C@@H](C(C)C)C(=O)N[C@@H](Cc1c[nH]c3ccccc13)C(=O)N[C@@H](CCC(=O)O)C(=O)N[C@@H](Cc1ccc(O)cc1)C(=O)N[C@@H](CC(=O)O)C(=O)N2 [Example 197, A-(SEQ ID NO: 142)-A] (H-ACDWVWEYDCWLPCA-NH2; linker 2-10-14 via TATA; N-terminus and C-terminus assumed)	460
CC(C)C[C@@H]1NC(=O)[C@H](Cc2c[nH]c3ccccc23)NC(=O)[C@@H]2CSCCC(=O)N3CN(CN(C3)C(=O)CCSC[C@H](NC(=O)CNC(=O)[C@H](CC(=O)O)NC(=O)[C@H](C)N)C(=O)N[C@@H](CCC(=O)O)C(=O)N[C@@H](Cc3c[nH]c4ccccc34)C(=O)N[C@@H](CC(N)=O)C(=O)N[C@@H](Cc3c[nH]c4ccccc34)C(=O)N[C@@H](C)C(=O)N[C@@H](Cc3ccc(O)cc3)C(=O)N[C@@H](CC(=O)O)C(=O)N2)C(=O)CCSC[C@@H](C(=O)N[C@@H](C)C(N)=O)NC(=O)CNC1=O [Example 201, ADG-(SEQ ID NO: 146)-A] (H-ADGCEWNWAYDCWLGCA-NH2; linker 4-12-16 via TATA; N-terminus and C-terminus assumed)	170
CSCC[C@@H]1NC(=O)[C@H](Cc2c[nH]c3ccccc23)NC(=O)[C@H](CCCCN)NC(=O)[C@@H](NC(=O)[C@@H](NC(=O)[C@H](CCC(=O)O)NC(=O)[C@H](C)N)[C@@H](C)O)CSCCC(=O)N2CN3CN(C2)C(=O)CCSC[C@H](NC(=O)[C@H](CC(=O)O)NC(=O)[C@H](Cc2ccc(O)cc2)NC(=O)[C@H](CCC(=O)O)NC(=O)[C@H](Cc2c[nH]c4ccccc24)NC1=O)C(=O)N[C@@H](Cc1c[nH]c2ccccc12)C(=O)N[C@@H](CC(C)C)C(=O)N[C@@H](CO)C(=O)N[C@H](C(=O)N[C@@H](C)C(N)=O)CSCCC3=O [Example 204, AET-(SEQ ID NO: 149)-A] (H-AETCKWMWEYDCWLSCA-NH2; linker 4-12-16 via TATA; N-terminus assumed)	100
CC[C@H](C)[C@H](NC(=O)[C@@H]1CCCN1C(=O)[C@H](C)NC(=O)[C@@H]1CSCCC(=O)N2CN3CN(C2)C(=O)CCSC[C@H](NC(=O)[C@H](CC(=O)O)NC(=O)[C@H](Cc2ccc(O)cc2)NC(=O)[C@H]([C@@H](C)O)NC(=O)[C@H](Cc2c[nH]c4ccccc24)NC(=O)[C@H](CC(N)=O)NC(=O)[C@H](Cc2c[nH]c4ccccc24)NC(=O)[C@H](CC(=O)O)NC(=O)[C@@H](NC(=O)[C@H](C)N)CSCCC3=O)C(=O)N[C@@H](Cc2c[nH]c3ccccc23)C(=O)N[C@@H](CC(C)C)C(=O)N[C@@H](CC(=O)O)C(=O)N1)C(N)=O [Example 206, A-(SEQ ID NO: 151)-API] (H-ACDWNWTYDCWLDCAPI-NH2; linker 2-10-14 via TATA; N-terminus and C-terminus assumed)	430
CC(C)C[C@@H]1NC(=O)[C@H](Cc2c[nH]c3ccccc23)NC(=O)[C@@H]2CSCCC(=O)N3CN(CN(C3)C(=O)CCSC[C@@H](C(=O)N[C@@H](Cc3ccccc3)C(=O)N[C@@H](C)C(=O)N[C@@H](CCC(=O)O)C(N)=O)NC(=O)[C@@H]3CCCN3C1=O)C(=O)CCSC[C@H](NC(=O)[C@H](C)N)C(=O)N[C@@H](CC(=O)O)C(=O)N[C@@H](Cc1c[nH]c3ccccc13)C(=O)N[C@@H](CC(=O)O)C(=O)N[C@@H](Cc1c[nH]c3ccccc13)C(=O)N[C@@H](CC(=O)O)C(=O)N[C@@H](Cc1ccc(O)cc1)C(=O)N[C@@H](CC(=O)O)C(=O)N2 [Example 208, A-(SEQ ID NO: 153)-FAE] (H-ACDWDWDYDCWLPCFAE-NH2; linker 2-10-14 via TATA; N-terminus assumed)	340
CC(C)C[C@@H]1NC(=O)[C@H](Cc2c[nH]c3ccccc23)NC(=O)[C@@H]2CSCCC(=O)N3CN(CN(C3)C(=O)CCSC[C@H](NC(=O)[C@H](CCC(=O)O)NC(=O)[C@H](Cc3c[nH]cn3)NC(=O)[C@H](Cc3c[nH]cn3)NC(=O)[C@H](CCC(N)=O)NC(=O)[C@H](CCC(=O)O)NC(=O)[C@@H](N)CC(=O)O)C(=O)N[C@@H](CC(=O)O)C(=O)N[C@@H](Cc3c[nH]c4ccccc34)C(=O)N[C@@H](Cc3c[nH]cn3)C(=O)N[C@@H](Cc3c[nH]c4ccccc34)C(=O)N[C@@H](CCC(=O)O)C(=O)N[C@@H](Cc3ccc(O)cc3)C(=O)N[C@@H](CC(=O)O)C(=O)N2)C(=O)CCSC[C@@H](C(=O)N[C@@H](C)C(N)=O)NC(=O)[C@H](CO)NC1=O [Example 209, DEQHHE-(SEQ ID NO: 144)-A]	910
CC(C)C[C@@H]1NC(=O)[C@H](Cc2c[nH]c3ccccc23)NC(=O)[C@@H]2CSCCC(=O)N3CN(CN(C3)C(=O)CCSC[C@H](NC(=O)[C@@H]3CCCN3C(=O)[C@@H]3CCCN3C(=O)[C@H](CCC(=O)O)NC(=O)[C@@H](NC(=O)[C@@H]3CCCN3C(=O)[C@@H](N)CO)[C@@H](C)O)C(=O)N[C@@H](CC(=O)O)C(=O)N[C@@H](Cc3c[nH]c4ccccc34)C(=O)N[C@@H](Cc3c[nH]cn3)C(=O)N[C@@H](Cc3c[nH]c4ccccc34)C(=O)N[C@@H](CCC(=O)O)C(=O)N[C@@H](Cc3ccc(O)cc3)C(=O)N[C@@H](CC(=O)O)C(=O)N2)C(=O)CCSC[C@@H](C(N)=O)NC(=O)[C@H](CO)NC1=O [Example 215, SPTEPP-(SEQ ID NO: 144)]	240
CC(C)C[C@@H]1NC(=O)[C@H](Cc2c[nH]c3ccccc23)NC(=O)[C@@H]2CSCCC(=O)N3CN(CN(C3)C(=O)CCSC[C@H](NC(=O)[C@H](CCC(=O)O)NC(=O)[C@H](CO)NC(=O)[C@@H]3CCCN3C(=O)[C@H](CO)NC(=O)[C@H](CCCNC(=N)N)NC(=O)[C@@H](N)CC(N)=O)C(=O)N[C@@H](CC(=O)O)C(=O)N[C@@H](Cc3c[nH]c4ccccc34)C(=O)N[C@@H](Cc3c[nH]cn3)C(=O)N[C@@H](Cc3c[nH]c4ccccc34)C(=O)N[C@@H](CCC(=O)O)C(=O)N[C@@H](Cc3ccc(O)cc3)C(=O)N[C@@H](CC(=O)O)C(=O)N2)C(=O)CCSC[C@@H](C(N)=O)NC(=O)[C@H](CO)NC1=O [Example 217, NRSPSE-(SEQ ID NO: 144)]	860
